According to PubChem BioAssay AID296 (DTP/NCI, 2004):
Values joined by “and” are separate entries in the source; they are usually repeats but may differ in a detail not shown here. Equal values may be shown once. Results filed as inconclusive are left out.

Test system: MX-1 breast xenograft, nude mice, tumor weight T/C
Experiment: NCI In Vivo Anticancer Drug Screen. Data for tumor model Human Mammary Carcinoma MX-1 Xenograft (intrarenal inoculation) in NU/NU Swiss (nude) mice
Details: endpoint: mean tumor weight change, higher = larger tumour
Summary of the method: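 Tumor-bearing mice were treated with test compound alongside a vehicle-treated control group. Survival or tumor size was measured, and activity is expressed as the treated-group value divided by the control-group value.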

[1] = dose: 400.0 mg/kg/injection, schedule: Q04DX003 (sc), vehicle: saline with Tween-80
[2] = dose: 800.0 mg/kg/injection, schedule: Q04DX003 (sc), vehicle: saline with Tween-80
[3] = dose: 200.0 mg/kg/injection, schedule: Q04DX003 (sc), vehicle: saline with Tween-80
[4] = dose: 300.0 mg/kg/injection, schedule: Q04DX003 (sc), vehicle: saline with Tween-80
[5] = dose: 150.0 mg/kg/injection, schedule: Q04DX003 (sc), vehicle: saline with Tween-80
[6] = dose: 600.0 mg/kg/injection, schedule: Q04DX003 (sc), vehicle: saline with Tween-80
[7] = dose: 150.0 mg/kg/injection, schedule: Q04DX003 (sc), vehicle: saline
[8] = dose: 300.0 mg/kg/injection, schedule: Q04DX003 (sc), vehicle: saline
[9] = dose: 600.0 mg/kg/injection, schedule: Q04DX003 (sc), vehicle: saline

For `C=C1C(=O)C23[C@H](O)C1CC[C@H]2[C@]12COC3(O)[C@@H](O)[C@@H]1C(C)(C)CC[C@@H]2O`, the T/C (dose: 12.5 mg/kg/injection, schedule: Q04DX003 (sc), vehicle: Klucel (hydroxypropylcellulose) (HPC)) was 52 % of control and the T/C (dose: 25.0 mg/kg/injection, schedule: Q04DX003 (sc), vehicle: Klucel (hydroxypropylcellulose) (HPC)) was 85 % of control.
For `O=C1NC(=O)C2C3C=CC(C12)C1C2C(=O)NC(=O)C2C31` (stereo not drawn), the T/C [1] was 68 % of control and the T/C [2] was 57 % of control.
With `O=C[C@@H](CO)O[C@H](C=O)n1cnc2c(=O)[nH]cnc21` the T/C (dose: 100.0 mg/kg/injection, schedule: Q04DX003 (sc), vehicle: saline with Tween-80) was 41 % of control, the T/C [3] was 39 % of control and 63 % of control and the T/C [4] was 47 % of control.
With `Cn1c2ccccc2c2ccc3c(c21)C(=O)C=CC3=O` the T/C (dose: 75.0 mg/kg/injection, schedule: Q04DX003 (sc), vehicle: saline with Tween-80) was 62 % of control, the T/C [5] was 61 % of control and the T/C [4] was 117 % of control. For the same compound, the T/C [6] was 88 % of control.
With `CCNC(=O)[B-][N+](C)(C)C` the T/C (dose: 100.0 mg/kg/injection, schedule: Q04DX003 (sc), vehicle: Klucel (hydroxypropylcellulose) (HPC)) was 115 % of control, the T/C (dose: 200.0 mg/kg/injection, schedule: Q04DX003 (sc), vehicle: Klucel (hydroxypropylcellulose) (HPC)) was 92 % of control and the T/C (dose: 400.0 mg/kg/injection, schedule: Q04DX003 (sc), vehicle: Klucel (hydroxypropylcellulose) (HPC)) was 74 % of control.
For `CC(=O)Oc1ccc[nH]c1=O`, the T/C [3] was 111 % of control, the T/C [1] was 100 % of control and the T/C [2] was 114 % of control.
In the case of `Oc1cc2ccccc2c(-c2c(O)c(O)cc3ccccc23)c1O`, the T/C [5] was 162 % of control, the T/C [4] was 151 % of control and the T/C (dose: 1200.0 mg/kg/injection, schedule: Q04DX003 (sc), vehicle: saline with Tween-80) was 96 % of control.
In the case of `CS(=O)(=O)OCCCNCCCOS(C)(=O)=O`, the T/C (dose: 18.75 mg/kg/injection, schedule: Q04DX003 (sc), vehicle: saline) was 61 % of control, the T/C (dose: 75.0 mg/kg/injection, schedule: Q04DX003 (sc), vehicle: saline) was 6 % of control and 7 % of control and the T/C [7] was 1 % of control.
In the case of `COC(=O)c1ccoc1`, the T/C [7] was 123 % of control, the T/C [8] was 89 % of control and the T/C [9] was 66 % of control.
For `CCCCCCNc1nc(NCCCCCC)c2[nH]c(NCCCCCC)nc2n1`, the T/C (dose: 300.0 mg/kg/injection, schedule: Q04DX003 (ip), vehicle: saline with Tween-80) was 75 % of control.
With `c1cc[c]([Sn]([NH]c2ncnc3[nH]cnc23)([NH]c2ncnc3[nH]cnc23)[c]2ccccc2)cc1` the T/C (dose: 75.0 mg/kg/injection, schedule: Q04DX003 (sc), vehicle: suspension in saline) was 76 % of control, the T/C (dose: 150.0 mg/kg/injection, schedule: Q04DX003 (sc), vehicle: suspension in saline) was 109 % of control and the T/C (dose: 300.0 mg/kg/injection, schedule: Q04DX003 (sc), vehicle: suspension in saline) was 111 % of control. The T/C (dose: 600.0 mg/kg/injection, schedule: Q04DX003 (sc), vehicle: suspension in saline) was 76 % of control.
With `c1ccc2c(NCCCCCCNc3c4ccccc4nc4ccccc34)c3ccccc3nc2c1` the T/C (dose: 10.0 mg/kg/injection, schedule: Q01DX010 (sc), vehicle: Klucel (hydroxypropylcellulose) (HPC)) was 87 % of control, the T/C (dose: 10.0 mg/kg/injection, schedule: Q04DX003 (sc), vehicle: Klucel (hydroxypropylcellulose) (HPC)) was 297 % of control and the T/C (dose: 20.0 mg/kg/injection, schedule: Q01DX010 (sc), vehicle: Klucel (hydroxypropylcellulose) (HPC)) was 58 % of control. The T/C (dose: 20.0 mg/kg/injection, schedule: Q04DX003 (sc), vehicle: Klucel (hydroxypropylcellulose) (HPC)) was 241 % of control, the T/C (dose: 40.0 mg/kg/injection, schedule: Q04DX003 (sc), vehicle: Klucel (hydroxypropylcellulose) (HPC)) was 322 % of control and the T/C (dose: 80.0 mg/kg/injection, schedule: Q04DX003 (sc), vehicle: Klucel (hydroxypropylcellulose) (HPC)) was 199 % of control.
In the case of `C[C@]12C=CC(=O)C=C1CC[C@@H]1[C@@H]2[C@@H](O)C[C@@]2(C)[C@H]1CC[C@]2(O)C(=O)CO`, the T/C (dose: 12.5 mg/kg/injection, schedule: Q01DX010 (sc), vehicle: Klucel (hydroxypropylcellulose) (HPC)) was 50 % of control, the T/C (dose: 25.0 mg/kg/injection, schedule: Q01DX010 (sc), vehicle: Klucel (hydroxypropylcellulose) (HPC)) was 67 % of control and the T/C (dose: 50.0 mg/kg/injection, schedule: Q01DX010 (sc), vehicle: Klucel (hydroxypropylcellulose) (HPC)) was 55 % of control. For the same compound, the T/C (dose: 100.0 mg/kg/injection, schedule: Q01DX010 (sc), vehicle: Klucel (hydroxypropylcellulose) (HPC)) was 24 % of control.
`COC1CC(CC2CCC(C)C(C(C)C(=O)O)O2)OC2(OC(C)(C3CCC(C)(C4OC(C5OC(O)(CO)C(C)CC5C)CC4C)O3)CC2C)C1C` (stereo not drawn) was tested, and the T/C (dose: 3.75 mg/kg/injection, schedule: Q04DX003 (sc), vehicle: Klucel (hydroxypropylcellulose) (HPC)) was 120 % of control, the T/C (dose: 7.5 mg/kg/injection, schedule: Q04DX003 (sc), vehicle: Klucel (hydroxypropylcellulose) (HPC)) was 65 % of control and the T/C (dose: 15.0 mg/kg/injection, schedule: Q04DX003 (sc), vehicle: Klucel (hydroxypropylcellulose) (HPC)) was 86 % of control.
For `O=c1[nH]c(=O)n(C2CC(O)C(CO)O2)cc1C(F)(F)F` (stereo not drawn), the T/C [8] was 77 % of control, the T/C [9] was 72 % of control and the T/C (dose: 1200.0 mg/kg/injection, schedule: Q04DX003 (sc), vehicle: saline) was 43 % of control. For the same compound, the T/C (dose: 2400.0 mg/kg/injection, schedule: Q04DX003 (sc), vehicle: saline) was 29 % of control.
In the case of `CCCC(=O)Nc1ncnc2c1ncn2C1OC2COP(=O)(O)OC2C1OC(=O)CCC` (stereo not drawn), the T/C (dose: 200.0 mg/kg/injection, schedule: Q01DX010 (sc), vehicle: saline) was 159 % of control and the T/C (dose: 400.0 mg/kg/injection, schedule: Q01DX010 (sc), vehicle: saline) was 124 % of control.
In the case of `O=C1c2cccc3cc([N+](=O)[O-])cc(c23)C(=O)N1CCN1CCCC1`, the T/C (dose: 18.0 mg/kg/injection, schedule: Q04DX003 (sc), vehicle: saline with Tween-80) was 120 % of control, the T/C (dose: 36.0 mg/kg/injection, schedule: Q04DX003 (sc), vehicle: saline with Tween-80) was 96 % of control and the T/C (dose: 72.0 mg/kg/injection, schedule: Q04DX003 (sc), vehicle: saline with Tween-80) was 85 % of control.
`CNC(=O)OCc1c(COC(=O)NC)c(-c2ccc(Cl)c(Cl)c2)n2c1Cc1ccccc1C2` was tested, and the T/C (dose: 300.0 mg/kg/injection, schedule: Q04DX003 (sc), vehicle: distilled water + Tween-80) was 64 % of control, the T/C (dose: 600.0 mg/kg/injection, schedule: Q04DX003 (sc), vehicle: distilled water + Tween-80) was 70 % of control and the T/C (dose: 1200.0 mg/kg/injection, schedule: Q04DX003 (sc), vehicle: distilled water + Tween-80) was 103 % of control. The T/C (dose: 2400.0 mg/kg/injection, schedule: Q04DX003 (sc), vehicle: distilled water + Tween-80) was 36 % of control.
In the case of `COc1ccc(CC2C(=O)NC(C)C(=O)N(C)C3C(=O)N(C)C(Cc4ccc(O)c(c4)Oc4ccc(cc4)C3O)C(=O)NC(C)C(=O)NC(C)C(=O)N2C)cc1` (stereo not drawn), the T/C (dose: 0.5 mg/kg/injection, schedule: Q01DX010 (sc), vehicle: saline with Tween-80) was 78 % of control, the T/C (dose: 1.0 mg/kg/injection, schedule: Q01DX010 (sc), vehicle: saline with Tween-80) was 51 % of control and the T/C (dose: 2.0 mg/kg/injection, schedule: Q01DX010 (sc), vehicle: saline with Tween-80) was 34 % of control.
For `C=CS(C=C)=NS(=O)(=O)c1ccc(C)cc1`, the T/C (dose: 18.75 mg/kg/injection, schedule: Q04DX003 (sc), vehicle: Klucel (hydroxypropylcellulose) (HPC)) was 64 % of control and the T/C (dose: 37.5 mg/kg/injection, schedule: Q04DX003 (sc), vehicle: Klucel (hydroxypropylcellulose) (HPC)) was 87 % of control.
For `S=P(N1CC1)(N1CC1)N1CC1`, the T/C (dose: 4.0 mg/kg/injection, schedule: Q01DX010 (sc), vehicle: saline) was -94 % of control.
For `C[C@H](CCC[C@H](C)OS(=O)(=O)c1ccccc1)OS(=O)(=O)c1ccccc1`, the T/C [4] was 92 % of control and the T/C [6] was 48 % of control.
For `Nc1ccn(C2OC(CO)C(O)C2O)c(=O)n1` (stereo not drawn), the T/C (dose: 7.5 mg/kg/injection, schedule: Q01DX010 (sc), vehicle: water) was 53 % of control, the T/C (dose: 7.81 mg/kg/injection, schedule: Q01DX010 (sc), vehicle: water) was 62 % of control and the T/C (dose: 15.0 mg/kg/injection, schedule: Q01DX010 (sc), vehicle: water) was 27 % of control. The T/C (dose: 15.63 mg/kg/injection, schedule: Q01DX010 (sc), vehicle: water) was 28 % of control and 30 % of control, the T/C (dose: 30.0 mg/kg/injection, schedule: Q01DX010 (sc), vehicle: water) was 18 % of control and the T/C (dose: 31.25 mg/kg/injection, schedule: Q01DX010 (sc), vehicle: water) was 9 % of control and 12 % of control. The T/C (dose: 60.0 mg/kg/injection, schedule: Q01DX010 (sc), vehicle: water) was 9 % of control and the T/C (dose: 600.0 mg/kg/injection, schedule: Q04DX003 (sc), vehicle: water) was 41 % of control.
